# Data from patent US20150056209A1, “PEPTIDE MIMOTOPES TO OXIDATION SPECIFIC EPITOPES” (The Regents of the University of California, priority 2012, published 2015).
# How the values were obtained:
# LRO4 [1] = assay: Phage ELISA, binding of phage clones to coated LRO4; design: species or system murine; conditions: 10^10 pfu/ml, OD 405-490 nm
# Method: (§1) Phage ELISA was performed as described by NEB with minor modifications. Ninety six-well ELISA plates (Nunc Maxisorp) were coated with 5 μg/mL LRO4 mAb or control IgM mAb in NaHCO3 buffer (pH 8.6) at 50 μL/well ON at 4° C. Wells were washed with TBS containing 0.5% Tween 20 and then blocked with blocking buffer (TBS-T containing 1% BSA) at 200 μL/well for 1 hour at RT. After further washing, 10^10 pfu/ml of phage amplificates diluted in blocking buffer were added to the wells at 50 μL/well for 2 hours at RT. Wells were washed again, and an HRP-labeled anti-M13 mAb conjugate (no. 27-9421-01; GE Healthcare, Amersham, UK) diluted 1:1,000 in blocking buffer was added for 1 hour at RT followed by the addition of an 2,2′-azino-bis(3-ethylbenzothiazoline-6-sulphonic acid) (ABTS) (Sigma-Aldrich) substrate solution for 1 hour at RT. The binding reactivity of selected phage clones was measured at OD 405-490 nm using a BioTek Synergy 2 plate reader.
# isotype control IgM = assay: Phage ELISA, binding of phage clones to isotype control IgM; conditions: 10^10 pfu/ml, OD 405-490 nm
# Method: Briefly, LRO4 or a control isotype anti-KLH IgM Ab (C48-6; BD Bioscience-Pharmingen, USA) were coated in buffer containing 0.1 M NaHCO3 (pH 8.5) on ELISA plates (Nunc Maxisorp, Roskilde, Denmark) overnight (ON) at 4° C. at a concentration of 100 μg/ml for the 1st, 50 μg/ml for the 2nd, and 10 μg/ml for the 3rd biopanning round. The next day, wells were washed with TBS containing 0.05% v/v Tween 20 (TBS-T) and incubated with blocking buffer containing 0.1M NaHCO3 (pH 8.6) and 5 mg/mL bovine serum albumin (BSA) for 1 hour at room temperature (RT). After further washing with TBS-T, 10 μL of a library solution (containing 2×10^12 phages) diluted in 100 μl of blocking buffer were first added to wells coated with control IgM (negative selection) and then unbound phages were transferred to wells coated with LRO4 (positive selection) and incubated at RT. The incubation time for negative or positive selection was reduced from 60 min for the 1st round to 30 min for the 2nd as well as 3rd biopanning round. Thereafter, plates were washed 5 times with TBS-T to remove unbound phages. To further elute nonspecifically bound phages, wells were incubated with 100 μL of 100 μg/ml of native LDL for 1 hour at RT. After washing up to 5 times with TBS-T, bound phages were eluted with 100 μL of elution buffer containing 0.2 M glycine-HCl (pH 2.2) and 1 mg/mL BSA. Eluates were transferred to microfuge tubes and neutralized with 15 μL of 1 M Tris-HCL (pH 9.1). The eluted phages were then titrated and amplified for the next round of panning. The 2nd and 3rd biopanning round was carried out using amplified eluates from the first and second round as input phages, respectively. To remove nonspecifically bound phages and to increase the affinity in the subsequent biopanning rounds, wells were washed 15 and 30 times with 0.1% TBS-T in the 2nd and 0.5% TBS-T in the 3rd rounds of biopanning, respectively. In the last biopanning round, LRO4-bound phages were competitively eluted with increasing concentrations (3-150 μg/mL) of MDA-LDL diluted in blocking buffer followed by elution using elution buffer.
# as §1
# LRO4 [2] = assay: Competitive phage ELISA, phage binding to LRO4 in presence of MDA-LDL; design: species or system murine; conditions: in the presence of 50 μg/mL MDA-LDL
# Method: For competitive phage ELISA, plates were coated with 5 μg/mL LRO4 and binding of 25 μL of phage solution at 2×10^10 pfu/mL was tested in the presence of 25 μL of MDA-LDL at 100 μg/mL. Bound phages were detected as described above and data expressed as values obtained in presence of competitor (B) divided by the values obtained in the absence of competitor (B0). A reciprocal competition assay was performed in which 50 μL of 5 μg/mL MDA-LDL was coated on microtiter wells, and binding of LRO4 that was preincubated for 30 min at RT with a solution containing either no or 1×10^10 pfu/mL phages with or without peptide was tested by chemiluminescent ELISA.
# Table 2A-B. Binding characteristics of MDA-phagotopes. Sequences and binding characteristics of selected phagotopes from (A) the Ph.D.-12 and (B) the Ph.D.7C7 libraries, respectively. Individual phages were selected and amplified after the third round of biopanning, and binding to an isotype control IgM, LRO4, and LRO4 in the presence of 50 μg/mL MDA-LDL was measured by phage ELISA, as described in Methods. Numbers indicate OD values or for inhibition studies the fraction of OD values obtained in the absence and presence of soluble MDA-LDL (B/B0). Sequences indicate amino acid residues in peptide sequences that were deducted from the DNA sequence of each phagotope. “X” indicates an unidentified amino acid at this position. * for clones with identical sequence representative data of one clone are provided. (SEQ ID NOs:6-37)
# [3] = Table 2A, Ph.D.-12 library clones
# [4] = Table 2B, Ph.D.7C7 library clones
Substance,Binding of phages to LR04 (LRO4 [1]; [3]) [OD],Binding of phages to control IgM (isotype control IgM; [3]) [OD],Inhibition of binding to LR04 (B/Bo) (LRO4 [2]; [3]),Binding of phages to LR04 (LRO4 [1]; [4]) [OD],Binding of phages to control IgM (isotype control IgM; [4]) [OD],Inhibition of binding to LR04 (B/Bo) (LRO4 [2]; [4])
ADPFSPTNRIPL [M7],1.37,0.03,0.10,–,–,–
ASISNLTLSRFM [M15],1.34,0.04,0.15,–,–,–
DWAPHFT [Cb2],–,–,–,1.0,0.2,0.03
ESWNTNSWAMYFG [M2],1.17,0.03,0.20,–,–,–
"ESWTNSWAHYFG [A36, B41, M35]",1.16,0.03,0.14,–,–,–
EVMNNWTLASIM [M30],1.04,0.03,0.06,–,–,–
GWGNKTPSQDVH [A39],1.19,0.05,0.19,–,–,–
HQLSNKDEQTPQ [A33],0.63,0.05,0.14,–,–,–
HRISNYAMELHS [G4],1.45,0.04,0.10,–,–,–
"HRLTNSEQAALP [M3, M5]",1.56,0.03,0.10,–,–,–
HRMTNAMHHFMG [A38],0.64,0.21,0.10,–,–,–
"HRMTNNAMDVFM [M6, G10]",1.56,0.03,0.20,–,–,–
"HSLSNIQMATLA [M10, G8]",1.16,0.03,0.10,–,–,–
HSLTNTQMTQLS [M31],1.35,0.03,0.40,–,–,–
HSWSNYWGHQHA [A32],0.98,0.02,0.18,–,–,–
KNSXQPL [Ca4],–,–,–,0.9,0.1,0.13

Substance,Binding of phages to LR04 (LRO4 [1]; [3]) [OD],Binding of phages to control IgM (isotype control IgM; [3]) [OD],Inhibition of binding to LR04 (B/Bo) (LRO4 [2]; [3]),Binding of phages to LR04 (LRO4 [1]; [4]) [OD],Binding of phages to control IgM (isotype control IgM; [4]) [OD],Inhibition of binding to LR04 (B/Bo) (LRO4 [2]; [4])
NNQNMPL [Cb9],–,–,–,0.7,0.01,0.02
"NNRNMPL [Ca59, Cb1]",–,–,–,0.8,0.1,0.06
"NNSHMPL [Ca9, Cb3, Ca8, Ca10]",–,–,–,0.9,0.2,0.04
NNSKMRL [Ca2],–,–,–,0.8,0.2,0.12
NNSNMPL [Cb10],–,–,–,0.6,0.2,0.02
NNSXMPL [Ca6],–,–,–,0.7,0.0,0.04
NNWKMPL [Cb4],–,–,–,0.6,0.1,0.02
"NNWNMPL [Ca1, Ca7]",–,–,–,0.8,0.1,0.04
NNYNMPL [Cb589],–,–,–,0.8,0.1,0.03
NSRTNNSQWTFQ [A34],0.82,0.11,0.11,–,–,–
NSWTNASLSTFH [A40],0.89,0.04,0.10,–,–,–
QNMNNWTLASIM [A31],0.85,0.08,0.25,–,–,–
QNSHMPL [Ca3],–,–,–,0.5,0.1,0.04
QSYTNDDVLRIS [M19],1.67,0.03,0.25,–,–,–
TAVTNSMMERLW [M8],1.57,0.04,0.20,–,–,–
